Earlier results, collected in paper PMC2749889 (Journal of neurochemistry, 2009).

Key:
[1] = system: α6 ^*; details: ref Klink et al. 2001; Mogg et al. 2002
[2] = system: α9 homomers; details: read-out: IC50, α9 homomers; ref Verbitsky et al. 2000

Structure (SMILES): CCN1C[C@]2(COC(=O)c3ccccc3N3C(=O)C[C@H](C)C3=O)CC[C@H](OC)[C@@]34[C@@H]5C[C@H]6[C@H](OC)[C@@H]5[C@](O)(C[C@@H]6OC)[C@@](O)([C@@H](OC)[C@H]23)[C@@H]14 [MLA, Methyllycaconitine]
- block of α6 ^* [1]: blocks
- IC50 [2]: 1.1 nM
